# According to the supplement of paper PMC5844555:
# What was measured:
# Test in all cases: 3' UTR reporter interaction score (median-centred robust z-score of log2 firefly/Renilla activity); higher = less repression of the 3' UTR reporter
# Conditions in all cases: HEK293T; 48 h
# [1] = system: MYCN
# In short: (§1)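 Using DharmaFECT Duo, HEK293T cells (10,000/well, 96-well plates) were co-transfected with 2.5 pmol miRNA mimic, 100 ng firefly luc2P reporter containing the gene's 3' UTR and 20 ng Renilla pRL-TK control, and dual-luciferase activity was read 48 h later. The interaction score is the log firefly/Renilla ratio as a per-plate robust z-score (median, median absolute deviation), median-centred per miRNA, averaged over at least two independent screens; lower, more negative values indicate interaction.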
# [2] = system: TP53
# In short: as §1
# [3] = system: MYT1L
# In short: as §1
# [4] = system: FBXW7
# In short: as §1
# [5] = system: ZEB2
# In short: as §1
# [6] = system: PHOX2B
# In short: as §1
# [7] = system: BRCA2
# In short: as §1
# [8] = system: HRAS
# In short: as §1
# [9] = system: MYC
# In short: as §1
# [10] = system: NOTCH1
# In short: as §1
# [11] = system: RB1
# In short: as §1
# [12] = system: PHF6
# In short: as §1
# [13] = system: MYB
# In short: as §1
# [14] = system: EZH2
# In short: as §1
Sequence,3' UTR reporter interaction score [1],3' UTR reporter interaction score [2],3' UTR reporter interaction score [3],3' UTR reporter interaction score [4],3' UTR reporter interaction score [5],3' UTR reporter interaction score [6],3' UTR reporter interaction score [7],3' UTR reporter interaction score [8],3' UTR reporter interaction score [9],3' UTR reporter interaction score [10],3' UTR reporter interaction score [11],3' UTR reporter interaction score [12],3' UTR reporter interaction score [13],3' UTR reporter interaction score [14]
GCCUGCUGGGGUGGAACCUGG,-0.962,-0.747,-0.443,-0.733,0.26,0.0382,0.403,-0.0157,0.0868,-0.0223,1.37,0.254,0.0969,-0.39
GCGACCCACUCUUGGUUUCCA,0.0444,0.384,-0.645,0.92,-0.694,0.84,-0.537,-0.85,-0.5,0.563,-2.3,-1.86,0.396,0.786
GCGACCCAUACUUGGUUUCAG,0.527,-0.0561,-5.03e-17,0.104,-0.392,-1.24,0.00941,-0.348,-0.469,0.351,-1.26,-1.74,0.445,1.08
GCGAGGACCCCUCGGGGUCUGAC,-0.654,0.0903,-0.47,0.437,-0.584,0.436,0.357,0.0816,-0.466,-0.131,0.707,-0.251,0.547,-0.18
GCGUGCGCCGGCCGGCCGCC,-1.25,0.961,-0.142,0.516,-0.647,0.436,0.432,-0.392,-1.82,-0.272,-0.23,1.71,-0.399,0.589
GCUAGUCCUGACUCAGCCAGU,0.0989,-0.219,0.167,0.368,0.364,0.384,4.86e-17,-0.409,-0.713,-0.242,0.4,-0.0579,0.624,-0.186
GCUGCGCUUGGAUUUCGUCCCC,0.248,-0.861,0.46,-0.688,0.715,-1.97,-0.029,-0.573,0.388,2.01,1.16,0.794,0.616,-0.09
GCUGGGCAGGGCUUCUGAGCUCCUU,0.117,-0.0785,-0.4,-0.37,0.0169,1.06,-0.0026,-0.298,-0.481,-0.244,0.659,0.53,0.00877,-0.0238
GGAGAAAUUAUCCUUGGUGUGU,-0.523,0.00656,0.261,0.978,-0.311,1.16,-0.364,-0.545,-1.2,0.146,0.166,0.937,-0.159,-0.15
GGCGGAGGGAAGUAGGUCCGUUGGU,-0.331,-0.152,0.0209,-0.817,0.059,-1.42,0.242,-0.537,-0.0304,0.067,0.267,0.0679,0.0558,0.332
GGCUGGCUCGCGAUGUCUGUUU,0.967,0.4,1.15,0.4,0.922,0.166,-2.13,-0.0445,-0.237,-0.649,0.183,0.0685,-2.48,-0.172
GGGCGCCUGUGAUCCCAAC,-0.708,0.186,0.181,0.114,-0.0882,0.588,-0.242,-0.201,-0.484,-0.381,-0.433,-0.831,0.137,0.0894
GGUAGAUUCUCCUUCUAUGAG,0.767,-0.00155,1.11,1.14,0.717,0.393,-0.394,-0.338,0.11,-0.435,-0.935,0.87,0.783,-0.351
GUCAACACUUGCUGGUUUCCUC,-0.83,-0.391,-2.13,1.04,-0.604,-0.934,1.05,-1.53,1.11,-0.696,0.731,0.545,-0.366,1.25
GUCAUACACGGCUCUCCUCUCU,-1.89,-0.0395,-0.904,-0.585,0.639,-0.585,0.502,0.779,0.275,0.867,-0.0565,-2.04,0.607,-0.733
GUCCAGUUUUCCCAGGAAUCCCUU,-0.357,-0.611,0.164,-0.33,-0.186,-0.361,0.301,-1.3,-0.0253,0.816,-0.0539,0.802,0.98,0.32
GUCCCUCUCCAAAUGUGUCUUG,1.77,0.415,-0.216,-1.89,-3.03,-0.224,0.364,0.01,1.7,-0.392,-0.267,-1.08,1.83,0.871
GUCCGCUCGGCGGUGGCCCA,-0.651,0.883,0.878,-0.455,0.167,0.167,-0.044,0.202,-0.572,0.197,-0.471,0.23,0.218,0.465
GUGAGUCUCUAAGAAAAGAGGA,-0.777,1.06,0.22,1.15,0.201,-1.54,0.654,-1.03,-0.241,0.287,-0.543,0.947,-1.86,-0.0137
